This is an account of results in paper PMC10179352, “Clostridia and Enteroviruses as Synergistic Triggers of Type 1 Diabetes Mellitus” (International Journal of Molecular Sciences, 2023).

The target of one test is INS (Homo sapiens, UniProt P01308). The conditions noted are these: ultraviolet spectrometry; derived from previous study; read-out: Binding Constants, INS; cited from earlier work. The text has this:
Table 1 Summary of ultraviolet spectrometry experiments concerning binding of T cell receptor sequences expanded in type 1 diabetic patients (TCR DIA) to a COX peptide (Cox Pep) that mimics the INS receptor (Ins Rec), two Clostridium peptides (Clost Pep) that mimic INS, two INS receptor peptides identified by their amino acid sequence numbers, and INS itself. Gluc = glucagon-like sequence; GR = gl | column: INS

Test [1] deals with Cox Pep #1 (COX peptide that mimics the INS receptor). In words: Ultraviolet spectrometry peptide binding. The conditions noted are these: estimated from inflection points of the curves, read-out: Binding Constants, Cox Pep #1. The text has this: (§1) Because some COX antigens mimic INSR sequences and some Clostridia antigens mimic INS, we synthesized several microbial peptide sequences that mimicked these human proteins and used ultraviolet spectroscopy to determine whether they bound to each other, as would be the case if they were complementary antigens. Figure 12 provides the peptide sequences and their similarities to either INS or INSR. Clostridium similarities to the INS A chain were specifically chosen because the role of the A chain in the induction of T1DM is generally ignored in favor of the B chain.
(§2) Previous investigators have sequenced the T cell receptor (TCR) sequences that are expanded in T1DM patients with particular specificities for INS or INSR [61, 62]. […] TCR 1, 2, and 4 were from one patient; TCR 8, 9, and 10 were from a second patient; and TCR K2.4, K2.12, and K2.16 were from a third. Ultraviolet light spectrometry was used to determine whether each TCR sequence recognized the COX and Clostridia peptides used in the previous set of experiments (Figure 12). The results are shown in Table 1, Figure 13, and Appendix F.

For the next test, the target named is Ins Rec 897–915. The following applies: ultraviolet spectrometry; derived from previous study; read-out: Binding Constants, Ins Rec 897–915; cited from earlier work. From the text: Table 1 Summary of ultraviolet spectrometry experiments concerning binding of T cell receptor sequences expanded in type 1 diabetic patients (TCR DIA) to a COX peptide (Cox Pep) that mimics the INS receptor (Ins Rec), two Clostridium peptides (Clost Pep) that mimic INS, two INS receptor peptides identified by their amino acid sequence numbers, and INS itself. Gluc = glucagon-like sequence; GR = gl | column: Ins Rec 897–915

A further test addresses Clost Pep #3. In words: Ultraviolet spectrometry peptide binding. Further details: species or system Clostridium. The conditions noted are these: estimated from inflection points of the curves, read-out: Binding Constants, Clost Pep #3.
From the text: as §1, §2

The target in another test is Clost Pep #2. Kind of test: Ultraviolet spectrometry peptide binding. Also noted: species or system Clostridium. The conditions noted are these: estimated from inflection points of the curves, read-out: Binding Constants, Clost Pep #2.
From the text: as §1, §2

A further test has as its target Ins Rec 105–118. The conditions noted are these: ultraviolet spectrometry; derived from previous study; read-out: Binding Constants, Ins Rec 105–118; cited from earlier work. The text has this: Table 1 Summary of ultraviolet spectrometry experiments concerning binding of T cell receptor sequences expanded in type 1 diabetic patients (TCR DIA) to a COX peptide (Cox Pep) that mimics the INS receptor (Ins Rec), two Clostridium peptides (Clost Pep) that mimic INS, two INS receptor peptides identified by their amino acid sequence numbers, and INS itself. Gluc = glucagon-like sequence; GR = gl | column: Ins Rec 105–118

INS, sequence (P01308 25-54): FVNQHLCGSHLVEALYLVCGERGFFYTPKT
INS, sequence (P01308 90-110): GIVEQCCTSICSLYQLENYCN

`CC(C)C[C@H](NC(=O)[C@H](C)NC(=O)[C@H](CO)NC(=O)[C@@H](N)CC(=O)O)C(=O)N[C@@H](Cc1ccc(O)cc1)C(=O)N[C@@H](CC(C)C)C(=O)N[C@@H](CS)C(=O)N[C@@H](C)C(=O)N[C@@H](CO)C(=O)N[C@@H](CO)C(=O)N[C@@H](CC(C)C)C(=O)NCC(=O)O` (single isomer, unassigned) [TCR DIA 4,8,9]: the Kd at INS is greater than 1000 µM.
Turning to `CC[C@H](C)[C@H](NC(=O)[C@@H](NC(=O)[C@H](C)NC(=O)[C@H](CC(C)C)NC(=O)[C@H](CO)NC(=O)[C@H](CO)NC(=O)[C@H](C)NC(=O)[C@@H](N)CS)C(C)C)C(=O)N[C@@H](CCCNC(=N)N)C(=O)N[C@H](C(=O)O)[C@@H](C)O` (single isomer, unassigned) [TCR DIA 2, K2.16], the Kd on INS was greater than 1000 µM.
Take CASSIYLCSVEATRAD [TCR DIA 1]: the Kd is 400 µM in test [1]; 300 µM on Ins Rec 897–915; 100 µM at Clost Pep #3; 100 µM at Clost Pep #2; 125 µM at Ins Rec 105–118; 80 µM with INS.
